Patent US20080070939A1, “LOCAL […] COMPOSITIONS CONTAINING DEXTROROTATORY MORPHINAN DERIVATIVES OR PHARMACEUTICALLY ACCEPTABLE SALTS THEREOF” (CHI MEI FOUNDATION HOSPITAL, priority 2006, published 2008)

Experiments:
rats = assay: Systemic safety indices: mortality 24 hours after intraperitoneal injection in rats; conditions: intraperitoneal injection, rats, mortality after 24 hours
Protocol: Essentially, each drug was injected intraperitoneally into the rats (n=8). The number of dead rats was observed after 24 hours, and the rate of mortality (%) was calculated. Thereafter, the doses of each drug and the relative mortality were plotted to obtain dose-mortality curves of the drugs. […] The safety index (LD50/ED50) of each drug was calculated using the LD50 thus obtained and the ED50 obtained in the section “C. Potency evaluation” of this example.

Male Sprague-Dawley rats [1] = assay: Spinal anesthetic effect (spinal blockade) after intrathecal injection in rats; format: in vivo; design: AUC of time-% PE curve, spinal blockade of motor function / AUC of time-% PE curve, spinal blockade of proprioception / AUC of time-% PE curve, spinal blockade of nociceptive reaction: unit not given beside the values
Protocol: (§1) Male Sprague-Dawley rats (weighing about 300 to 350 g); for each dose of each drug, n=6.
In brief, for preparation, the hairs on the back of each rat were shaved, and the shaved back was sterilized with iodine.
After three minutes, 50 μL of each of the tested drugs was injected via a 27-gauge needle attached to a 100-μL syringe (Hamilton, Reno, Nev.) into the intrathecal space between the fourth and fifth lumbar vertebrae. The development of spinal blockade was observed from the paralysis of the hind limbs of the rats.
The magnitude of nerve block (including blocking of motor function, proprioception, and nociceptive reaction) was expressed as the percentage of possible effect (hereinafter referred to as % PE), and the maximal value of % PE was expressed as the percentage of maximal possible effect (hereinafter referred to as % MPE).
Motor function was evaluated by measuring the extensor postural thrust of the right hind limbs of the rats using a digital platform balance (Mettler Toledo, Switzerland, model PB1502-S). To test the extensor postural thrust, the rat was held upright with the hind limb extended, so that the body weight of the rat was supported by the distal metatarsus and toes. The extensor postural thrust could be measured as the force of the right hind limb of the rat thrusting the platform balance.
A reduction in the force, resulting in extensor muscle tone, was considered as a motor deficit. A force less than 20 g (i.e., a weight of the “flaccid limb”) was considered absence of an extensor postural thrust or 100% motor block or 100% MPE.
Proprioception was evaluated based on resting posture and postural reactions (including tactile placing and hopping). First, the front half of the rat body and one of the hind limbs were lifted off the ground at the same time so that the rat was standing on one hind limb. Then, the rat was moved laterally, which normally evoked a prompt hopping response of the weight-bearing hind limb of the rat in the direction of movement so as to avoid falling. A predominantly proprioceptive block caused a delayed hopping followed by greater lateral hops. […] Functional deficits were classified into four grades: 3 (normal or 0% MPE), 2 (slightly impaired), 1 (severely impaired), and 0 (completely impaired or 100% MPE).
Nociceptive reaction was evaluated by the withdrawal reflex or vocalization elicited by the pinch of a skin fold over the back at 1 cm near the proximal part of the tail, the lateral metatarsus of the bilateral hind limbs, and the dorsal part of the mid-tail. At each testing time, only one pinch was given to each of the abovementioned four testing sites, and the time interval between stimulations at different sites was around 2 seconds. Nociceptive reactions were classified into five grades: 4 (normal or 0% MPE), 3 (25% MPE), 2 (50% MPE), 1 (75% MPE), and 0 (absent or 100% MPE).
The potency of each drug on spinal blockades was compared using ED50.
Duration was defined as the interval from injection of the tested drugs to complete recovery. The ED25, ED50 and ED75 obtained according to the SAS NLIN analysis in the preceding section “C. Potency evaluation” were used in this experiment.
Regarding the method of evaluating the effect of co-administration, dextromethorphan hydrobromide monohydrate was used as an example.
After the tests, the time of measurement of each drug and its corresponding % PE were plotted to obtain the time-% PE curves of each drug. The area under the curve (AUC) of time-% PE was calculated using the trapezoidal rule, and was used to evaluate the effect of the co-administration of the drugs.
Statistical software, SPSS for Windows® (version 10.0.7) was used. Data were represented as mean±SEM.

sciatic nerve = assay: Sciatic nerve blockade after injection at the sciatic nerve notch in rats; format: in vivo; design: AUC of time-% PE curve, sciatic nerve blockade of motor function / AUC of time-% PE curve, sciatic nerve blockade of proprioception / AUC of time-% PE curve, sciatic nerve blockade of nociceptive reaction: unit not given beside the values; conditions: rats
Protocol: as §1
In brief, the rats were slightly anesthetized by inhalation of a low concentration of sevoflurane. Then, 200 μL of tested drugs were injected at the sciatic nerve notch at the left hind limb of the rat using a 27-gauge needle connected to a tuberculin syringe (Becton Dickinson, USA, model BND309623-BX). Thereafter, development of sciatic nerve blockade was observed from the paralysis of the left hind limb of the rat. The right hind limb served as a control during the subsequent functional assay
For proprioception, the front half of the rat body and the right hind limb were off the ground at the same time so that the rat was standing on the left hind limb during the measurement.
The differences resided in that: The sciatic nerve notch injections of ED25, ED50 and ED75 were conducted based on the method described in the preceding section “A. Drug injection” of this example. Evaluations of motor function, proprioception and nociceptive reaction were conducted based on the method described in section “B. Neurobehavioral evaluations” of this example.
The differences resided in that: Before the statistical analysis, Shapiro-Wilk test was used to evaluate whether the data were, theoretically, normally distributed.

Male Sprague-Dawley rats [2] = assay: Infiltrative cutaneous anesthesia (inhibition of cutaneous trunci muscle reflex, CTMR) after subcutaneous injection in rats; format: in vivo
Protocol: Male Sprague-Dawley rats (weighing about 200 to 250 g); for each dose of each drug, n=8.
In brief, hairs on the dorsal surface (about 10×10 cm^2) of the thoracolumbar region of the rat were shaved, and the shaved surface was sterilized with iodine for preparation. To reduce the number of animals used, the back of the rat was further divided into left and right parts. One drug was injected first at the right part. After a washout period of one week, another drug was injected at the left part.
0.6 mL of drug was injected subcutaneously under the dorsal surface of the thoracolumbar region of the rat using a 30-gauge needle attached to a syringe (Becton Drive, Franklin Lakes, USA). The subcutaneous injection would result in a circular elevation (i.e., a wheal) of the skin, about 2 cm in diameter. The elevation was marked with ink within 1 minute after injection.
CTMR refers to the reflex movement of the skin of the back caused by twitching of the lateral thoracispinal muscle in response to local dorsal cutaneous stimulation. Essentially, a von Frey filament (No.15; Somedic Sales AB, Sweden) to which a cut end of an 18-gauge needle was affixed was used to produce a standard nociceptive stimulus (strength: 19 g). Six pinpricks (at a frequency of 0.5-1 Hz) were applied to a single marked wheal during each test. […] For example, absence of any response to all of the 6 pinpricks was defined as a complete nociceptive block (i.e., 100% MPE).
The difference resided in that subcutaneous injections of ED25, ED50 and ED75 of the drugs were performed based on the method described in the section “A. Drug injection” of this example, and evaluation of the infiltrative cutaneous anesthetic effect was performed based on the method described in the section “B. Neurobehavioral evaluation” of this example.

[3] = intrathecal, rats, 2 ED50 when administered independently, ED50 of each drug when co-administered, mean ± SEM
[4] = spinal blockade, mean of motor function, proprioception and nociceptive reaction, intrathecal, rats
[5] = 2ED50 when administered independently, ED50 of each drug when co-administered, mean ± SEM
[6] = infiltrative cutaneous anesthesia, rats, 2ED50 when administered independently, ED50 for co-administration, mean ± SEM
[7] = infiltrative cutaneous anesthesia, subcutaneous injection, rats
[8] = subcutaneous dose of ED75, rats, mean±SEM

Dextrorphan tartrate
LD50 (95% CI) (rats): 307 (257–369) mg/kg
% MPE of spinal blockades of motor function, proprioception and nociceptive reaction (range over the three functions) (Male Sprague-Dawley rats [1]; intrathecal dose of ED75, rats): 62-77 % MPE
duration of spinal blockades of motor function, proprioception and nociceptive reaction (range over the three functions) (Male Sprague-Dawley rats [1]; intrathecal dose of ED75, rats): 30 to 65 min
effect of co-administration with bupivacaine hydrochloride on spinal blockade (Male Sprague-Dawley rats [1]; intrathecal, rats, ED50 of each drug): synergistic effect
AUC of time-% PE curve, spinal blockade of motor function (Male Sprague-Dawley rats [1]; [3]): 1447 ± 163
AUC of time-% PE curve, spinal blockade of nociceptive reaction (Male Sprague-Dawley rats [1]; [3]): 4332 ± 382
Motor function ED50 (95% CI) (Male Sprague-Dawley rats [1]; spinal blockade of motor function, intrathecal injection, rats): 0.40 (0.39–0.42) mg
Nociceptive reaction ED50 (95% CI) (Male Sprague-Dawley rats [1]; spinal blockade of nociceptive reaction, intrathecal injection, rats): 0.28 (0.26–0.30) mg
Proprioception ED50 (95% CI) (Male Sprague-Dawley rats [1]; spinal blockade of proprioception, intrathecal injection, rats): 0.32 (0.30–0.35) mg
Mean value ED25 (Male Sprague-Dawley rats [1]; [4]): 0.25 mg
Mean value ED50 (Male Sprague-Dawley rats [1]; [4]): 0.33 mg
Mean value ED75 (Male Sprague-Dawley rats [1]; [4]): 0.45 mg
effect of co-administration with lidocaine hydrochloride on sciatic nerve blockades (sciatic nerve; ED50 of each drug): additive effect
AUC of time-% PE curve, sciatic nerve blockade of motor function (sciatic nerve; [5]): 7077 ± 429
AUC of time-% PE curve, sciatic nerve blockade of nociceptive reaction (sciatic nerve; [5]): 8786 ± 915
AUC of time-% PE curve, sciatic nerve blockade of proprioception (sciatic nerve; [5]): 7357 ± 558
duration of sciatic nerve blockade compared with lidocaine hydrochloride (sciatic nerve; same effective doses (ED25, ED50 or ED75)): longer reaction duration
Motor function ED50 (95% CI) (sciatic nerve; sciatic nerve blockade of motor function): 14.66 (13.78–15.58) mg/kg
Nociceptive reaction ED50 (95% CI) (sciatic nerve; sciatic nerve blockade of nociceptive reaction): 13.38 (12.37–14.47) mg/kg
Proprioception ED50 (95% CI) (sciatic nerve; sciatic nerve blockade of proprioception): 14.52 (13.40–15.73) mg/kg
Mean ED50 (sciatic nerve; sciatic nerve blockade, mean of motor function, proprioception and nociceptive reaction): 14.19 mg/kg
% MPE (Male Sprague-Dawley rats [2]; [6]): 73 ± 11 % MPE
AUC (% min.) (Male Sprague-Dawley rats [2]; [6]): 3200 ± 690 % min.
Duration (Male Sprague-Dawley rats [2]; [6]): 63 ± 7 min
ED25 (Male Sprague-Dawley rats [2]; [7]): 4.03 mg/kg
ED50 (95% CI) (Male Sprague-Dawley rats [2]; [7]): 5.66 (5.17–6.21) mg/kg
ED75 (Male Sprague-Dawley rats [2]; [7]): 7.97 mg/kg
duration of cutaneous anesthesia compared with lidocaine hydrochloride (Male Sprague-Dawley rats [2]; same effective doses (ED25, ED50 or ED75), rats): longer duration
% MPE of cutaneous nociceptive block (Male Sprague-Dawley rats [2]; [8]): 73±7 % MPE
duration of cutaneous nociceptive block (Male Sprague-Dawley rats [2]; [8]): ~48 ± 3 min
effect of co-administration with lidocaine hydrochloride on cutaneous nociceptive blockade (Male Sprague-Dawley rats [2]; subcutaneous, rats, ED50 of each drug): additive effect
